Measured values from US20150119373A1, “NOVEL BETULINIC ACID DERIVATIVES AS HIV INHIBITORS” (HETERO RESEARCH FOUNDATION, priority 2012, published 2015).

Tests used:
[1] = tested on: HIV-1 strain 92HT599; experiment: Antiviral activity: p24 estimation in MT2 cells infected with HIV-1 strain 92HT599; type: cell-based; conditions: Human immunodeficiency virus 1, MT2 cells, HIV-1 92HT599, ~96 hours, p24; for inhibition at 0.1 µM: 100 nM, read-out: Antiviral activity % inhibition 100 nM; for inhibition at 1 µM: 1000 nM, read-out: Antiviral activity % inhibition 1000 nM
Experimental: MT2 cells were infected with HIV-1 strain 92HT599 (10 TCID 50/30000 cells). The infected cells were plated at the concentration of […] cells per well in 96 well plate. Test compound was added to the micro plate in defined format with the final concentration of DMSO (vehicle) is not more than 1%. Incubation was carried out in CO2 incubator for ˜96 hours for viral infection. At the end of incubation period an aliquot from each well was taken for p24 estimation. The quantitation of p24 is an index for antiviral activity of the compound. Percent inhibition was calculated with reference to control values (vehicle controls).
p-24 estimation was carried out using Advance biosciences kit as per the procedure detailed by supplier.

[2] = Cyto-toxicity assay (MTT) in MT2 cells without virus; type: cell-based; conditions: human
Experimental: For cyto-toxicity assay the same amount of MT2 cells as in antiviral assay without virus was added to the 96 well plates. The cyto-toxicity was measured using MTT reagent in parallel with p24 estimation. The percent viability is calculated in comparison with vehicle control.

[3] = Single dose oral pharmacokinetic study in mice; type: in vivo; conditions: mouse, plasma, Mice oral PK @30 mg/kg (Table 5); for AUC(0-t): read-out: AUC 0-t
Experimental: The test item was administered through oral route to animals (rat/mice) at 30 mg/kg dose in a suitable vehicle at 10 ml/kg dose volume. Blood samples (˜50 uL at each time point) were collected from retro-orbital plexus using K3 EDTA as anticoagulant in eppendorf tubes at defined time intervals under light ether anesthesia. The samples were centrifuged at 3500×g to separate plasma and stored at −80° C. until analysis.
Sample analysis: Test samples were analyzed using LC-MS-MS after developing fit-for-purpose method for each of test compound.

## CCN1CCN(C(=O)[C@]23CC[C@@H](C4(C)CC4)[C@@H]2[C@H]2CC[C@@H]4[C@@]5(C)CC[C@H](OC(=O)CC(C)(C)C(=O)O)C(C)(C)[C@@H]5CC[C@@]4(C)[C@]2(C)CC3)CC1 [Example 12, 4-((1R,3aS,5aR,5bR,7aR,9S,11aR,11bR,13aR,13bR)-3a-(4-ethylpiperazine-1-carbonyl)-5a,5b,8,8,11a-pentamethyl-1-(1-methylcyclopropyl)icosahydro-1H-cyclopenta[a]chrysen-9-yloxy)-2,2-dimethyl-4-oxobutanoicacid]
[1]
  inhibition at 0.1 µM: 100%
  inhibition at 1 µM: 100%
[2]
  viability at 100 nM: 100%
  viability at 1000 nM: 99%
[3]
  Cmax: 8160 ng/mL
  Tmax: 4 h
  AUC(0-t): 201000 ng·h/mL

## CCN1CCN(C(=O)[C@]23CC[C@@H](C4(C)CC4)[C@@H]2[C@H]2CC[C@@H]4[C@@]5(C)CC[C@H](OC(=O)[C@H]6C[C@@H](C(=O)O)C6(C)C)C(C)(C)[C@@H]5CC[C@@]4(C)[C@]2(C)CC3)CC1 [Example 13, (1R,3S)-3-(((1R,3aS,5aR,5bR,7aR,9S,11aR,11bR,13aR,13bR)-3a-(4-ethylpiperazine-1-carbonyl)-5a,5b,8,8,11a-pentamethyl-1-(1-methylcyclopropyl)icosahydro-1H-cyclopenta[a]chrysen-9-yloxy)carbonyl)-2,2-dimethylcyclobutanecarboxylic acid]
[1]
  inhibition at 0.1 µM: 83%
  inhibition at 1 µM: 99%
[2]
  viability at 100 nM: 86%
  viability at 1000 nM: 79%
[3]
  Cmax: 12000 ng/mL
  Tmax: 20 h
  AUC(0-t): 456000 ng·h/mL

## CC(C)(CC(=O)O[C@H]1CC[C@]2(C)[C@H]3CC[C@@H]4[C@H]5[C@H]([C@]6(C)CO6)CC[C@]5(C(=O)N[C@@H]5C[C@H](C(=O)N6CCCCC6)C5(C)C)CC[C@@]4(C)[C@]3(C)CC[C@H]2C1(C)C)C(=O)O [Example 14, 4-((1R,3aS,5aR,5bR,7aR,9S,11aR,11bR,13aR,13bS)-3a-((1R,3S)-2,2-dimethyl-3-(piperidine-1-carbonyl)cyclobutylcarbamoyl)-5a,5b,8,8,11a-pentamethyl-1-(2-methyloxiran-2-yl)icosa hydro-1H-cyclopenta[a]chrysen-9-yloxy)-2,2-dimethyl-4-oxobutanoicacid]
[1]
  inhibition at 0.1 µM: 100%
  inhibition at 1 µM: 100%
[2]
  viability at 100 nM: 86%
  viability at 1000 nM: 88%
[3]
  Cmax: 4450 ng/mL
  Tmax: 0.63 h
  AUC(0-t): 15200 ng·h/mL

## CC(C)(CC(=O)O[C@H]1CC[C@]2(C)[C@H]3CC[C@@H]4[C@H]5[C@H]([C@@](C)(O)CO)CC[C@]5(C(=O)N[C@@H]5C[C@H](C(=O)N6CCCCC6)C5(C)C)CC[C@@]4(C)[C@]3(C)CC[C@H]2C1(C)C)C(=O)O [Example 15, 4-((1R,3aS,5aR,5bR,7aR,9S,11aR,11bR,13aR,13bS)-1-(1,2-dihydroxypropan-2-yl)-3a-((1R,3S)-2,2-dimethyl-3-(piperidine-1-carbonyl)cyclobutylcarbamoyl)-5a,5b,8,8,11a-pentamethylicosahydro-1H-cyclopenta[a]chrysen-9-yloxy)-2,2-dimethyl-4-oxobutanoicacid]
[1]
  inhibition at 0.1 µM: 93%
  inhibition at 1 µM: 97%
[2]
  viability at 100 nM: 95%
  viability at 1000 nM: 95%
[3]
  Cmax: 3780 ng/mL
  Tmax: 0.63 h
  AUC(0-t): 31400 ng·h/mL

## Cc1nnc([C@H]2C[C@@H](NC(=O)[C@]34CC[C@@H](C5(C)CC5)[C@@H]3[C@H]3CC[C@@H]5[C@@]6(C)CC[C@H](OC(=O)[C@H]7C[C@@H](C(=O)O)C7(C)C)C(C)(C)[C@@H]6CC[C@@]5(C)[C@]3(C)CC4)C2(C)C)o1 [Example 17, (1R,3S)-3-(((1R,3aS,5aR,5bR,7aR,9S,11aR,11bR,13aR,13bR)-3a-((1R,3S)-2,2-dimethyl-3-(5-methyl-1,3,4-oxadiazol-2-yl)cyclobutylcarbamoyl)-5a,5b,8,8,11a-pentamethyl-1-(1-methylcyclopropyl)icosahydro-1H-cyclopenta[a]chrysen-9-yloxy)carbonyl)-2,2-dimethyl cyclobutanecarboxylicacid]
[1]
  inhibition at 0.1 µM: 100%
  inhibition at 1 µM: 100%
[2]
  viability at 100 nM: 77%
  viability at 1000 nM: 89%
[3]
  Cmax: 5940 ng/mL
  Tmax: 4.5 h
  AUC(0-t): 88300 ng·h/mL

## COCCOCCOC1CCN(C(=O)[C@]23CC[C@@H](C4(C)CC4)[C@@H]2[C@H]2CC[C@@H]4[C@@]5(C)CC[C@H](OC(=O)[C@H]6C[C@@H](C(=O)O)C6(C)C)C(C)(C)[C@@H]5CC[C@@]4(C)[C@]2(C)CC3)CC1 [Example 44, (1R,3S)-3-((((1R,3aS,5aR,5bR,7aR,9S,11aR,11bR,13aR,13bR)-3a-(4-(2-(2-methoxyethoxyl)ethoxy)piperidine-1-carbonyl)-5a,5b,8,8,11a-pentamethyl-1-(1-methylcyclopropyl)icosahydro-1H-cyclopenta[a]chrysen-9-yl)oxy)carbonyl)-2,2-dimethylcyclobutane-1-carboxylic acid]
[1]
  inhibition at 0.1 µM: 97%
  inhibition at 1 µM: 100%
[2]
  viability at 100 nM: 93%
  viability at 1000 nM: 86%

## CCN1CCN(C2CCN(C(=O)[C@]34CC[C@@H](C5(C)CC5)[C@@H]3[C@H]3CC[C@@H]5[C@@]6(C)CC[C@H](OC(=O)[C@H]7C[C@@H](C(=O)O)C7(C)C)C(C)(C)[C@@H]6CC[C@@]5(C)[C@]3(C)CC4)CC2)CC1 [Example 46, (1R,3S)-3-((((1R,3aS,5aR,5bR,7aR,9S,11aR,11bR,13aR,13bR)-3a-(4-(4-ethylpiperazin-1-yl)piperidine-1-carbonyl)-5a,5b,8,8,11a-pentamethyl-1-(1-methylcyclopropyl)icosahydro-1H-cyclopenta[a]chrysen-9-yl)oxy)carbonyl)-2,2-dimethylcyclobutane-1-carboxylic acid]
[1]
  inhibition at 0.1 µM: 100%
  inhibition at 1 µM: 100%
[2]
  viability at 100 nM: 100%
  viability at 1000 nM: 90%

## CC(C)(CC(=O)O[C@H]1CC[C@]2(C)[C@H]3CC[C@@H]4[C@H]5[C@H](C6(C)CC6)CC[C@]5(C(=O)N5CCC(OCCN6CCOCC6)CC5)CC[C@@]4(C)[C@]3(C)CC[C@H]2C1(C)C)C(=O)O [Example 47, 2,2-dimethyl-4-oxo-4-(((1R,3aS,5aR,5bR,7aR,9S,11aR,11bR,13aR,13bR)-5a,5b,8,8,11a-pentamethyl-1-(1-methylcyclopropyl)-3a-(4-(2-morpholinoethoxyl)piperidine-1-carbonyl)icosahydro-1H-cyclopenta[a]chrysen-9-yl)oxy)butanoic acid]
[1]
  inhibition at 0.1 µM: 100%
  inhibition at 1 µM: 99%
[2]
  viability at 100 nM: 100%
  viability at 1000 nM: 96%

## CC1([C@@H]2CC[C@]3(C(=O)N4CCC(OCCN5CCOCC5)CC4)CC[C@]4(C)[C@H](CC[C@@H]5[C@@]6(C)CC[C@H](OC(=O)[C@H]7C[C@@H](C(=O)O)C7(C)C)C(C)(C)[C@@H]6CC[C@]54C)[C@@H]23)CC1 [Example 48, (1R,3S)-2,2-dimethyl-3-((((1R,3aS,5aR,5bR,7aR,9S,11aR,11bR,13aR,13bR)-5a,5b,8,8,11a-pentamethyl-1-(1-methylcyclopropyl)-3a-(4-(2-morpholinoethoxyl)piperidine-1-carbonyl)icosahydro-1H-cyclopenta[a]chrysen-9-yl)oxy)carbonyl)cyclobutane-1-carboxylic acid]
[1]
  inhibition at 0.1 µM: 97%
  inhibition at 1 µM: 99%
[2]
  viability at 100 nM: 100%
  viability at 1000 nM: 100%

## CC(C)(CC(=O)O[C@H]1CC[C@]2(C)[C@H]3CC[C@@H]4C5[C@H](C6(C)CC6)CC[C@]5(C(=O)N[C@H]5C[C@@H](C(=O)N6CCOCC6)C5(C)C)CC[C@@]4(C)[C@]3(C)CC[C@H]2C1(C)C)C(=O)O (stereo partly drawn) [Example 51, 4-(((1R,3aS,5aR,5bR,7aR,9S,11aR,11bR,13aR)-3a-(((1S,3R)-2,2-dimethyl-3-(morpholine-4-carbonyl)cyclobutyl)carbamoyl)-5a,5b,8,8,11a-pentamethyl-1-(1-methylcyclopropyl)icosahydro-1H-cyclopenta[a]chrysen-9-yl)oxy)-2,2-dimethyl-4-oxobutanoic acid]
[1]
  inhibition at 0.1 µM: 100%
  inhibition at 1 µM: 100%
[2]
  viability at 100 nM: 85%
  viability at 1000 nM: 83%

## CC(C)(CC(=O)O)CC(=O)O[C@H]1CC[C@]2(C)[C@H]3CC[C@@H]4C5[C@H](C6(C)CC6)CC[C@]5(C(=O)N[C@H]5C[C@@H](C(=O)N6CCOCC6)C5(C)C)CC[C@@]4(C)[C@]3(C)CC[C@H]2C1(C)C (stereo partly drawn) [Example 52, 5-(((1R,3aS,5aR,5bR,7aR,9S,11aR,11bR,13aR)-3a-(((1S,3R)-2,2-dimethyl-3-(morpholine-4-carbonyl)cyclobutyl)carbamoyl)-5a,5b,8,8,11a-pentamethyl-1-(1-methylcyclopropyl)icosahydro-1H-cyclopenta[a]chrysen-9-yl)oxy)-3,3-dimethyl-5-oxopentanoic acid]
[1]
  inhibition at 0.1 µM: 100%
  inhibition at 1 µM: 100%
[2]
  viability at 100 nM: 95%
  viability at 1000 nM: 85%
